Results from patent US10329262B2, “Quinazolinone antibiotics” (priority 2013, dated 2019).

Columns and labels:
PBP1 = target: T1, PBP1 (Staphylococcus aureus, UniProt Q53725); test: Bocillin FL competition assay, S. aureus membrane preparation; type: binding
T1 construct: Fluorescence labeling of S. aureus membrane preparation (150 μg) by Bocillin FL (30 μM); endogenous in cells; host or cells: S. aureus ATCC 29213 membrane preparation
Experimental: S. aureus (ATCC 29213), a methicillin-sensitive strain, was grown in Difco Luria-Bertani (LB) broth at 37° C. until an OD625˜0.8. Cells were centrifuged at 3,200 g for 30 min at 4° C. and washed once with cold 100 mM NaH2PO4, 50 mM NaHCO3, pH 7.5, buffer. The cells were resuspended in 10 mL cold buffer containing complete EDTA-free protease inhibitor, 200 μg/mL lysostaphin, 15 μg/mL DNase I, 10 mM MgCl2, and 1 mM EDTA and incubated for 30 min at 37° C. Cells were sonicated using a Branson Sonifer for 5×1 min cycles, with 2 min of rest in between each cycle, and the lysate was centrifuged at 3,200 g for 20 min at 4° C. The supernatant was then ultracentrifuged at 32,000 rpm for 1 h at 4° C. and the pellet was washed once with cold buffer. The resulting membrane was resuspended in buffer, quantified using the BCA Protein Assay Kit, and the concentration was adjusted to 9 mg/mL.
The Bocillin FL competition assays were performed with purified PBP2a and membrane extracts. PBP2a was purified using a previously described protocol (Fuda et al., J. Biol. Chem. 279, 40802-40806 (2004)). […] Samples were centrifuged, loaded to SDS-PAGE, the gels were visualized immediately using a Storm840 Scanner, and fluorescence was quantified using ImageQuant software. IC50 values were calculated using GraphPad prism 5, using the previously published equation.

red blood cells = test: Hemolysis; type: cell-based, human; details: at 50 μg/mL
Experimental: Fresh heparinized human blood was washed three times by centrifugation at 1,200 g for 10 min in 100 mM PBS, pH 7.4. A 10% red-blood cell (RBC) suspension was prepared in PBS. Antibiotic 2 at 0.5, 5, and 50 μg/mL was added to aliquots of the 10% RBC suspension and incubated at 37° C. A positive control of 0.2% Triton was used. Samples were centrifuged at 1,200 g for 10 min and the supernatant measured for absorbance at 541 nm.

[1] = Plasma protein binding, rapid equilibrium dialysis, mouse; type: in vitro ADME; details: pH 7.4, mice, 6 h dialysis
Experimental: Aliquots from both chambers were quenched with 1:2 v/v acetonitrile containing an internal standard. The samples were concentrated to dryness on a miVac concentrator and the residue resuspended in 50:50 acetonitrile/water. Samples were analyzed by reverse-phase ultraperformance liquid chromatography (UPLC) with UV/Vis detection. Plasma protein binding of quinazolinone 2 was 98.0±0.04% in mice and 96.5±0.70% in humans.

S. aureus NRS119 = test: MIC, CLSI broth microdilution, S. aureus NRS119; type: cell-based, Staphylococcus aureus
Experimental: (§1) MICs were evaluated following the CLSI microdilution method in BBL™ Mueller-Hinton II broth (Wikler et al., Clinical Laboratory Standards Institute Document M7-A7, 29 (2009)). Briefly, two-fold serial dilutions of compound were prepared in triplicate in 96-well plates and inoculated with 5×10^5 cfu/mL of the bacterial suspension. Plates were incubated at 37° C. for 16-20 hours.

[2] = Metabolic stability in human S9; type: in vitro ADME; details: human S9, 2 μM
Experimental: (§2) Aliquots were taken at 0, 5, 10, 20, 30, 40, and 60 min, and mixed with two volumes of acetonitrile containing internal standard. The precipitated protein was centrifuged at 20,000 g for 15 min, and the supernatant was analyzed by reversed-phase UPLC.

S. aureus VRS1 = test: MIC, CLSI broth microdilution, S. aureus VRS1; type: cell-based, Staphylococcus aureus
Experimental: as §1

[3] = Metabolic stability in rat S9; type: in vitro ADME; details: rat S9, 2 μM
Experimental: as §2

MRSA ATCC 27660 = test: Mouse peritonitis model of MRSA infection; type: in vivo, mice
Experimental: We evaluated several compounds in in vivo mouse infection models, as well as in pharmacokinetic (PK) studies in mice (Table 1). The in vivo efficacy was determined using the rapid mouse peritonitis model of infection, in which the end point is death or survival in 48 hours. We initially dosed the compounds intravenously (iv) at a single dose level. If the compound has good in vivo efficacy after iv administration, we then evaluated efficacy at five dose levels. We also investigated in vivo efficacy after oral (po) administration.
Groups (n=6/group) of mice were infected with MRSA (0.5 mL of ATCC 27660 at a final concentration of 5×10^7 CFU/mL in 5% porcine mucin) intraperitoneally (ip). Following infection, mice were given iv doses by tail vein injection of compound 2, vancomycin (5 mg/kg, positive control), or vehicle at 30 min and 4.5 h after infection. The number of surviving mice was monitored for 48 h. The negative control (vehicle) typically results in the death of all mice. Quinazolinone 2 was dissolved in saline, sterile-filtered, and administered at doses of 2.5, 5, 7.5, 10, 20, and 30 mg/kg. The ED50 value was calculated using GraphPad prism 5.

[4] = test system: S. aureus ATCC 29213 (MSSA); test: MIC, CLSI broth microdilution, S. aureus ATCC 29213; type: cell-based, Staphylococcus aureus
Experimental: as §1

T1 sequence (Q53725 1-744): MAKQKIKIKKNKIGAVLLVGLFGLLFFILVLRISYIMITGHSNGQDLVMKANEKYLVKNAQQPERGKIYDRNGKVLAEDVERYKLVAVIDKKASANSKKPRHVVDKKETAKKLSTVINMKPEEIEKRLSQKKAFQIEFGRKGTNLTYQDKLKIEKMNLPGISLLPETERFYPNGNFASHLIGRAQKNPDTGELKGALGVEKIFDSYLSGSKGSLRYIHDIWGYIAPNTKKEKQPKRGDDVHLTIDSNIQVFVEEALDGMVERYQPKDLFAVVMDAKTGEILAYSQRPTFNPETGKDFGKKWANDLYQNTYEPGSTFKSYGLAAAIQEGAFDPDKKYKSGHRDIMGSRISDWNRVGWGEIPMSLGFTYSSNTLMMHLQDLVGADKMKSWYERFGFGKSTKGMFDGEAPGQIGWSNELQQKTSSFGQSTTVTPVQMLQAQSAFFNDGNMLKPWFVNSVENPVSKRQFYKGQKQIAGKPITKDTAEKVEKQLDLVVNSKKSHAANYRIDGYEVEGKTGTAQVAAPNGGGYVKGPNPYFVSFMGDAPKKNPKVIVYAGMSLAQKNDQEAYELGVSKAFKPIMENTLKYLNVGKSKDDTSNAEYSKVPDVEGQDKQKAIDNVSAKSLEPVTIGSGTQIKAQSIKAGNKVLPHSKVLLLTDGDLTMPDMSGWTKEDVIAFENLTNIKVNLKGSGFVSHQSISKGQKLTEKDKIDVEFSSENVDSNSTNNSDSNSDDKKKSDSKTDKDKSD

N#Cc1ccc(/C=C/c2nc3ccccc3c(=O)n2-c2cccc(C(=O)O)c2)cc1.[Na] [Compound 2, Sodium (E)-3-(3-carboxyphenyl)-2-(4-cyanostyryl)quinazolin-4(3H)-one]
IC50 (PBP1): 187 µM
Hemolysis of red blood cells (red blood cells): < 1%
fraction unbound at 6 h, 10 μM [1]: 0.02
MIC (S. aureus NRS119; Staphylococcus aureus, NRS119): 8 µg/mL
In vitro AB activity (MIC) (S. aureus NRS119; Table 2.1, S. aureus NRS119): 8 µg/mL
Compound remaining after 1-h incubation [2]: 100%
MIC (S. aureus VRS1; Staphylococcus aureus, VRS1): 16 µg/mL
In vitro AB activity (MIC) (S. aureus VRS1; Table 2.1, S. aureus VRS1): 16 µg/mL
Compound remaining after 1-h incubation [3]: 100%
In Vivo Efficacy (survived/total mice) (MRSA ATCC 27660; 10 mg/kg iv at 30 min and 4.5 hr after infection, n = 6, 48 h): 5/6 @ 10 mg/kg
ED50 (MRSA ATCC 27660; Staphylococcus aureus, iv administration, dose giving survival of 50% of the animals, read-out: Median effective dose (ED50)): 10 mg/kg
MIC ([4]; Staphylococcus aureus): 2 µg/mL
In vitro AB activity (MIC) ([4]; Table 2.1, S. aureus ATCC 29213): 2 µg/mL
Increase of MIC in the presence of BSA ([4]; with BSA vs without): 4 fold
